Where two headings read alike, the source gives them in different places.

From patent US10590113B2, “6-hydroxy-4-oxo-1,4-dihydropyrimidine-5-carboxamides as APJ agonists” (priority 2016, dated 2020) come the findings set out here.

The target of this test is T1, human APJ receptor (Homo sapiens, UniProt P35414).
T1 construct: expressed in transfected cells; host or cells: HEK293
T1 sequence (P35414 1-380): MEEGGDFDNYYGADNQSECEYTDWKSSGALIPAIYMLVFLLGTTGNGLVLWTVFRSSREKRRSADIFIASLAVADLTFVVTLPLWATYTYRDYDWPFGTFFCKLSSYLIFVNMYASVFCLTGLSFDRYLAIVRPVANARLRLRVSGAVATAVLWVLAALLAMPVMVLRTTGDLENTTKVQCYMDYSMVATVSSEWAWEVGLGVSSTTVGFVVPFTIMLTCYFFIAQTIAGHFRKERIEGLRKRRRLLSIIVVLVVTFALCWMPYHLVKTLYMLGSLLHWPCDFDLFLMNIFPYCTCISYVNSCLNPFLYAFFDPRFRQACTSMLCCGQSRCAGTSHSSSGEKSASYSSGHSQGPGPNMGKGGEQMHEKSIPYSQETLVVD
Kind of test: Intracellular cAMP Accumulation Assay (APJ hcAMP, HTRF). Format: cell-based. The procedure: Intracellular cAMP Accumulation Assay
HEK293 cells stably expressing human APJ receptor were used to assess the activity of compounds. Cultured cells were detached and resuspended in the cAMP
Homogeneous Time-Resolved Fluorescence (HTRF) assay buffer (Cisbio cat; #62AM4PEJ). The assay was performed in 384-well assay plates (Perkin-Elmer; cat #6008289) according to assay protocol provided by the manufacturer. Serial dilutions of a compound together with assay buffer containing […] IBMX and 2 μM forskolin were added to each well containing 5,000 cells and incubated for 30 minutes at room temperature. Subsequently, cAMP D2 reagent was added in the lysis buffer followed by the EuK antibody (Cisbio; cat #62AM4PEJ) and incubated for 60 min. The fluorescence emission ratio was measured using fluorometer. The intracellular cAMP concentrations (compound-stimulated inhibition of forskolin-mediated cAMP production) were calculated by extrapolation from a standard curve using known cAMP concentrations. The EC50 values were obtained by fitting the data to a sigmoidal concentration-response curve with variable slope.
The EC50 value of each compound is presented at the end of the example description.
The biological activity of the exemplified compounds of this invention determined by the assay described above is shown at the end of each example.
In general terms: Time-resolved FRET reads energy transfer from a long-lived donor to a nearby acceptor.

The mark [1] stands for this setting: human APJ, intracellular cAMP accumulation, read-out: hAPJ cAMP EC50 Potency range.
The mark [2] stands for this setting: HEK293 cells stably expressing human APJ receptor, inhibition of forskolin-mediated cAMP production, read-out: Human APJ cAMP EC50 potency range.
Where [3] appears, read: read-out: hAPJ cAMP EC50 Potency range, human APJ, intracellular cAMP accumulation.

Broadly, the EC50 is the concentration at which the effect is half-maximal. On to `CCOCc1nc(=O)c(C(=O)N2CCC(c3cccc(Cl)c3)C2)c(O)n1-c1c(OC)cccc1OC` (racemic) [Example 26, 5-(3-(3-chlorophenyl)pyrrolidine-1-carbonyl)-1-(2,6-dimethoxyphenyl)-2-(ethoxymethyl)-6-hydroxypyrimidin-4(1H)-one], for which the EC50 under setting [1] is 0.01 to 10 nM. As for `COc1cccc(OC)c1-n1c(CC2CC2)nc(=O)c(C(=O)N2CCC(c3cccc(Cl)c3)C2)c1O` (racemic) [Example 28, 5-(3-(3-chlorophenyl)pyrrolidine-1-carbonyl)-2-(cyclopropylmethyl)-1-(2,6-dimethoxyphenyl)-6-hydroxypyrimidin-4(1H)-one], the EC50 under setting [1] was 0.01 to 10 nM. As to `CCCCc1nc(=O)c(C(=O)N2CCC(Cc3ccccc3)C2)c(O)n1-c1c(OC)cccc1OC` (racemic) [Example 73, 5-(3-benzylpyrrolidine-1-carbonyl)-2-butyl-1-(2,6-dimethoxyphenyl)-6-hydroxy-1,4-dihydropyrimidin-4-one], the EC50 under setting [1] fell in the range of 0.01 to 10 nM.

For `CCCCc1nc(O)c(C(=O)N2CCC(c3ccc(F)cc3)C2)c(=O)n1-c1c(CC)cccc1CC` (racemic) [Example 89, 2-butyl-3-(2,6-diethylphenyl)-5-[3-(4-fluorophenyl)pyrrolidine-1-carbonyl]-6-hydroxy-3,4-dihydropyrimidin-4-one], the EC50 under setting [1] lay in the range of 0.01 to 10 nM. With `C=CCCc1nc(O)c(C(=O)N2CC[C@H](c3ccccc3)C2)c(=O)n1-c1c(C)cccc1OC` (single isomer, unassigned) [Example 8], under setting [2], the EC50 lay in the range of 0.01 to 10 nM. With `C=CCCc1nc(O)c(C(=O)N2CC[C@H](c3ccccc3)C2)c(=O)n1-c1c(C)cccc1OC` (single isomer, unassigned) [Example 8″], the EC50 under setting [2] lay in the range of 0.01 to 10 nM. Take `COc1cccc(OC)c1-n1c(COC2CC2)nc(=O)c(C(=O)N2CCC(c3ccccc3F)C2)c1O` (single isomer, unassigned) [Example 10, 2-(cyclopropoxymethyl)-1-(2,6-dimethoxyphenyl)-5-(3-(2-fluorophenyl)pyrrolidine-1-carbonyl)-6-hydroxypyrimidin-4(1H)-one]: under setting [1], the EC50 is 0.01 to 10 nM. As to `COc1cccc(OC)c1-n1c(COC2CC2)nc(=O)c(C(=O)N2CCC(c3ccccc3F)C2)c1O` (single isomer, unassigned) [Example 13, 2-(cyclopropoxymethyl)-1-(2,6-dimethoxyphenyl)-5-(3-(2-fluorophenyl)pyrrolidine-1-carbonyl)-6-hydroxy-pyrimidin-4(1H)-one], under setting [1], the EC50 fell in the range of 0.01 to 10 nM.

Turning to `CCc1cccc(CC)c1-n1c(COC(C)C)nc(=O)c(C(=O)N2CCC(c3ccccn3)C2)c1O` (single isomer, unassigned) [Example 18, 1-(2,6-diethylphenyl)-6-hydroxy-2-(isopropoxymethyl)-5-(3-(pyridin-2-yl)pyrrolidine-1-carbonyl)pyrimidin-4(1H)-one], the EC50 under setting [1] was in the range of 0.01 to 10 nM. With `COc1cccc(OC)c1-n1c(COC2CC2)nc(=O)c(C(=O)N2CCC(c3ccccc3C)C2)c1O` (single isomer, unassigned) [Example 19, 2-(cyclopropoxymethyl)-1-(2,6-dimethoxyphenyl)-6-hydroxy-5-(3-(o-tolyl)pyrrolidine-1-carbonyl)pyrimidin-4(1H)-one], the EC50 under setting [1] lay within 0.01 to 10 nM. Turning to `COc1cccc(OC)c1-n1c(COC2CC2)nc(=O)c(C(=O)N2CCC(c3ccc(Cl)cc3)C2)c1O` (single isomer, unassigned) [Example 21, 5-(3-(4-chlorophenyl)pyrrolidine-1-carbonyl)-2-(cyclopropoxymethyl)-1-(2,6-dimethoxyphenyl)-6-hydroxypyrimidin-4(1H)-one], under setting [1], the EC50 was in the range of 0.01 to 10 nM. Same read-out and setting: for `COc1cccc(OC)c1-n1c(COC2CC2)nc(=O)c(C(=O)N2CCC(c3ccccc3Cl)C2)c1O` (single isomer, unassigned) [Example 22, 5-(3-(2-chlorophenyl)pyrrolidine-1-carbonyl)-2-(cyclopropoxymethyl)-1-(2,6-dimethoxyphenyl)-6-hydroxypyrimidin-4(1H)-one] the value was 0.01 to 10 nM; for `CCc1cccc(CC)c1-n1c(COC(C)C)nc(=O)c(C(=O)N2CCC(c3ccccc3F)C2)c1O` (single isomer, unassigned) [Example 25, 1-(2,6-diethylphenyl)-5-(3-(2-fluorophenyl)pyrrolidine-1-carbonyl)-6-hydroxy-2-(isopropoxymethyl) pyrimidin-4(1H)-one], 0.01 to 10 nM.

With `CCCCc1nc(=O)c(C(=O)N2CCC(c3ccc(Cl)cn3)C2)c(O)n1-c1c(OC)cccc1OC` (single isomer, unassigned) [Example 41, 2-butyl-5-(3-(5-chloropyridin-2-yl)pyrrolidine-1-carbonyl)-1-(2,6-dimethoxyphenyl)-6-hydroxypyrimidin-4(1H)-one], the EC50 fell in the range of 0.01 to 10 nM. As to `COc1cccc(OC)c1-n1c(COC(C)(C)C)nc(=O)c(C(=O)N2CCC(c3ccccc3Cl)C2)c1O` (single isomer, unassigned) [Example 42, 2-[(tert-butoxy)methyl]-5-[3-(2-chlorophenyl)pyrrolidine-1-carbonyl]-1-(2,6-dimethoxyphenyl)-6-hydroxy-1,4-dihydropyrimidin-4-one], the EC50 under setting [1] fell in the range of 0.01 to 10 nM. Take `CCCCc1nc(=O)c(C(=O)N2CCC(c3ccccc3Cl)C2)c(O)n1-c1c(OC)cccc1OC` (single isomer, unassigned) [Example 43, 2-butyl-5-[3-(2-chlorophenyl)pyrrolidine-1-carbonyl]-1-(2,6-dimethoxyphenyl)-6-hydroxy-1,4-dihydropyrimidin-4-one]: the EC50 under setting [1] was in the range of 0.01 to 10 nM.

In the case of `CCCCc1nc(=O)c(C(=O)N2CCC(c3ccc(Cl)cc3)C2)c(O)n1-c1c(OC)cccc1OC` (single isomer, unassigned) [Example 45, 2-butyl-5-[3-(4-chlorophenyl)pyrrolidine-1-carbonyl]-1-(2,6-dimethoxyphenyl)-6-hydroxy-1,4-dihydropyrimidin-4-one], the EC50 under setting [3] was in the range of 0.01 to 10 nM. `CCCCc1nc(=O)c(C(=O)N2CCC(c3ccc(Cl)cc3)C2)c(O)n1-c1c(OC)cccc1OC` (single isomer, unassigned) [Example 46, 2-butyl-5-[3-(4-chlorophenyl)pyrrolidine-1-carbonyl]-1-(2,6-dimethoxyphenyl)-6-hydroxy-1,4-dihydropyrimidin-4-one] had an EC50 of 0.01 to 10 nM.

As for `CCCCc1nc(=O)c(C(=O)N2CCC(c3ccncc3)C2)c(O)n1-c1c(OC)cccc1OC` (single isomer, unassigned) [Example 47, 2-butyl-1-(2,6-dimethoxyphenyl)-6-hydroxy-5-[3-(pyridin-4-yl)pyrrolidine-1-carbonyl]-1,4-dihydropyrimidin-4-one], the EC50 lay within 0.01 to 10 nM. Regarding `CCCCc1nc(=O)c(C(=O)N2CCC(c3ccncc3)C2)c(O)n1-c1c(OC)cccc1OC` (single isomer, unassigned) [Example 48, 2-butyl-1-(2,6-dimethoxyphenyl)-6-hydroxy-5-[3-(pyridin-4-yl)pyrrolidine-1-carbonyl]-1,4-dihydropyrimidin-4-one], the EC50 under setting [3] is 0.01 to 10 nM. For the compound `COc1cccc(OC)c1-n1c(COC(C)(C)C)nc(=O)c(C(=O)N2CCC(c3ccccc3F)C2)c1O` (single isomer, unassigned) [Example 50, 2-[(tert-butoxy)methyl]-1-(2,6-dimethoxyphenyl)-5-[3-(2-fluorophenyl)pyrrolidine-1-carbonyl]-6-hydroxy-1,4-dihydropyrimidin-4-one], the EC50 under setting [1] is 0.01 to 10 nM. Still for that read-out and setting: for `CCCCc1nc(=O)c(C(=O)N2CCC(c3ccccc3F)C2)c(O)n1-c1c(OC)cccc1OC` (single isomer, unassigned) [Example 52, 2-butyl-1-(2,6-dimethoxyphenyl)-5-[3-(2-fluorophenyl)pyrrolidine-1-carbonyl]-6-hydroxy-1,4-dihydropyrimidin-4-one] the value was 0.01 to 10 nM; for `CCCCc1nc(=O)c(C(=O)N2CCC(c3ccccc3F)C2)c(O)n1-c1c(OC)cccc1OC` (single isomer, unassigned) [Example 53, 2-butyl-1-(2,6-dimethoxyphenyl)-5-[3-(2-fluorophenyl)pyrrolidine-1-carbonyl]-6-hydroxy-1,4-dihydropyrimidin-4-one], 0.01 to 10 nM. As for `CCOCc1nc(=O)c(C(=O)N2CCC(c3ccccn3)C2)c(O)n1-c1c(OC)cccc1OC` (single isomer, unassigned) [Example 54, 1-(2,6-dimethoxyphenyl)-2-(ethoxymethyl)-6-hydroxy-5-[3-(pyridin-2-yl)pyrrolidine-1-carbonyl]-1,4-dihydropyrimidin-4-one], under setting [1], the EC50 was in the range of 0.01 to 10 nM.
